In patent US11427548B2 (Arvinas Operations, Inc., priority 2015, dated 2022):
Where two headings read alike, the source gives them in different places.

Biological target: T1, Androgen Receptor (Homo sapiens, UniProt P10275)
T1 construct: endogenous in cells; host or cells: VCaP cells
T1 sequence (P10275 1-920): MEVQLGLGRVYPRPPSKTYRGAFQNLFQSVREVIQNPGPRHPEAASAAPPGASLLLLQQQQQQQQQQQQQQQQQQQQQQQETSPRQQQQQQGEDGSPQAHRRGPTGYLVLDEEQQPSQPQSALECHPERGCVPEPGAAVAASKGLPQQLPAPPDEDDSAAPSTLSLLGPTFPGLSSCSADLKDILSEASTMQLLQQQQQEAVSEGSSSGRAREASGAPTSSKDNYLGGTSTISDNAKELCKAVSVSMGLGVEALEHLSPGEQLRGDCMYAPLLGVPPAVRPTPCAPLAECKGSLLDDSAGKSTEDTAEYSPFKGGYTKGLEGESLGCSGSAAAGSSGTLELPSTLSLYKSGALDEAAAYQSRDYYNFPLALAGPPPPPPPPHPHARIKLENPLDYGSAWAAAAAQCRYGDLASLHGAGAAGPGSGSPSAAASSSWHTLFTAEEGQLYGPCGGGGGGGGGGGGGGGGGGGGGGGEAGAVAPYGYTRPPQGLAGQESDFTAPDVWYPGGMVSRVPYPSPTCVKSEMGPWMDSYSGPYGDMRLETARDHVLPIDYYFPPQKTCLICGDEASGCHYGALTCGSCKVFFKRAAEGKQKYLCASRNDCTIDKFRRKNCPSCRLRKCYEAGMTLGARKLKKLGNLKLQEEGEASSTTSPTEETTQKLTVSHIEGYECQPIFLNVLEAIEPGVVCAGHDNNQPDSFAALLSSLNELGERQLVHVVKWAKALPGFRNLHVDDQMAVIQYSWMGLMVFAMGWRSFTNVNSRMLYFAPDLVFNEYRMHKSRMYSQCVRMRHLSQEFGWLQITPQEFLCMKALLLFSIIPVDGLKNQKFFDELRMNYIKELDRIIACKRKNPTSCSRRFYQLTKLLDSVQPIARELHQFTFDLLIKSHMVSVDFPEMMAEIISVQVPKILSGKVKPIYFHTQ
Assay: Androgen Receptor ELISA assay (PathScan AR ELISA) in VCaP cells: AR degradation, Dmax and DC50
Assay type: cell-based
Method in brief: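 VCaP cells in phenol red-free RPMI with 5% charcoal-stripped FBS were grown at least 3 days, then given compound as 7 half-log doses in 0.1% DMSO with 0.1 nM R1881 for 24 h. Lysates went into a sandwich AR ELISA with TMB read at 450 nm.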

[1] = read-out: VCaP DC50; VCaP cells; Table 36
[2] = VCaP cells; Table 36; read-out: VCaP DC50
[3] = VCaP, VCaP cells; Table 36; read-out: VCaP Dmax (%)
[4] = VCaP, read-out: VCaP Dmax (%), VCaP cells; Table 36

Compound	Dmax (VCaP, read-out: VCaP Dmax (%))	DC50 [1]	DC50 [2]	Dmax [3]	also measured
Cc1nccn1-c1ccc(C(C)NC(=O)C2CC(O)CN2C(=O)C(C(C)C)n2cc(-c3ccc(OC4CCN(c5ccc(N6C(=S)N(c7ccc(C#N)c(C(F)(F)F)c7)C(=O)C6(C)C)cn5)CC4)nc3)cn2)cc1 (centres unmarked) [Example 631, 1-(2-(4-(6-((1-(5-(3-(4-cyano-3-(trifluoromethyl)phenyl)-5,5-dimethyl-4-oxo-2-thioxoimidazolidin-1-yl)pyridin-2-yl)piperidin-4-yl)oxy)pyridin-3-yl)-1H-pyrazol-1-yl)-3-methylbutanoyl)-4-hydroxy-N-(1-(4-(2-methyl-1H-imidazol-1-yl)phenyl)ethyl)pyrrolidine-2-carboxamide]	< 25%	> 501 nM	–	–	–
C#CCCC(=O)OC(CCOCCCOCC(=O)N[C@H](C(=O)N1C[C@H](O)C[C@H]1C(=O)N[C@@H](C)c1ccc(-c2scnc2C)cc1)C(C)(C)C)CCOc1ccc(N2C(=S)N(c3ccc(C#N)c(C(F)(F)F)c3)C(=O)C2(C)C)cc1 (stereo partly drawn) [Example 632, 1-(4-(3-(4-cyano-3-(trifluoromethyl)phenyl)-5,5-dimethyl-4-oxo-2-thioxoimidazolidin-1-yl)phenoxy)-5-(3-(2-(((S)-1-((2S,4R)-4-hydroxy-2-(((S)-1-(4-(4-mehtylthiazol-5-yl)phenyl)ethyl)carbam-oyl)pyrrolidin-1-yl)-3,3-dimethyl-1-oxobutan-2-yl)amino)-2-oxoethoxy)propoxy)pen-tan-3-yl pent-4-ynoate]	–	–	> 501 nM	–	VCaP Dmax (%) (VCaP cells; Table 36): ++ (26% ≤ Dmax ≤ 50%)
Cc1ncoc1C12CC(CNC(=O)[C@@H]3C[C@@H](O)CN3C(=O)C(NC(=O)COCCCOCCCOc3ccc(N4C(=O)N(c5ccc(C#N)c(C(F)(F)F)c5)C(=O)C4(C)C)cc3)C(C)(C)C)(C1)C2 (stereo partly drawn) [Example 633, (2S,4)R-1-((S)-2-(2-(3-((5-(4-(3-(4-cyano-3-(trifluoromethyl)phenyl)-5,5-dimethyl-4-oxo-2-thioxoimidazolidin-1-yl)phenoxy)pentyl)oxy)propoxy)acetamido)-3,3-dimethylbutanoyl)-4-hydroxy-N-((3-(4-methyloxazol-5-yl)bicyclo[1,.1.1]pentan-1-yl)methyl)pyrrolidine-2-carboxamide]	< 25%	> 501 nM	–	–	–
Cc1ncsc1-c1ccc([C@H](C)NC(=O)[C@@H]2C[C@@H](O)CN2C(=O)[C@@H](NC(=O)CO[C@H](C)CN2CCN(c3ccc(C(=O)N[C@H]4C(C)(C)[C@H](Oc5ccc(C#N)c(Cl)c5)C4(C)C)cc3)CC2)C(C)(C)C)cc1 [Example 634, (2S,4R)-1-((S)-2-(2-(((R)-1-(4-(4-(((1r,3R)-3-(3-chloro-4-cyanophenoxy)-2,2,4,4-tetramethylcyclobutyl)carbamoyl)phenyl)piper-azin-1-yl)propan-2-yl)oxy)acetamido)-3,3-dimethylbutanoyl)-4-hydroxy-N-((S)-1-(4-(4-methylthiazol-5-yl)phenyl)ethyl)pyrrolidine-2-carboxamide]	–	–	< 50 nM	> 71%	–
Cc1ncsc1-c1ccc([C@H](C)NC(=O)[C@@H]2C[C@@H](O)CN2C(=O)[C@@H](NC(=O)COCCCOCCCCCOc2ccc(C(=O)N[C@H]3C(C)(C)[C@H](Oc4ccc(C#N)c(Cl)c4)C3(C)C)cc2)C(C)(C)C)cc1 [Example 635, (2S,4R)-1-((S)-2-(2-(3-((5-(4-(((1r,3r)-3-(3-chloro-4-cyanophenoxy)-2,2,4,4-tetramethylcyclobutyl)carbamoyl)phenoxy)pen-tyl)oxy)propoxy)aceta-mido)-3,3-dimethylbutanoyl)-4-hydroxy-N-((S)-1-(4-(4-methylthiazol-5-yl)phenyl)ethyl)pyrrolidine-2-carboxamide]	–	–	< 50 nM	–	Dmax [4]: 51 to 70%
Cc1ncsc1-c1ccc([C@H](C)NC(=O)[C@@H]2C[C@@H](O)CN2C(=O)[C@@H](NC(=O)COCCN2C[C@H]3C[C@@H]2CN3c2ccc(C(=O)N[C@H]3C(C)(C)[C@H](Oc4ccc(C#N)c(Cl)c4)C3(C)C)cn2)C(C)(C)C)cc1 [Example 636, N-((1r,3R)-3-(3-chloro-4-cyanophenoxy)-2,2,4,4-tetramethylcyclobutyl)-6-((1R,4R)-5-(2-(2-(((S)-1-((2S,4R)-4-hydroxy-2-(((S)-1-(4-(4-methylthiazol-5-yl)phenyl)ethyl)carbam-oyl)pyrrolidin-1-yl)-3,3-dimethyl-1-oxobutan-2-yl)amino)-2-oxoethoxy)ethyl)-2,5-diazabicyclo[2.2.1]hept-an-2-yl)nicotinamide]	> 71%	< 50 nM	–	–	–
Cc1ncsc1-c1ccc([C@H](C)NC(=O)[C@@H]2C[C@@H](O)CN2C(=O)[C@@H](NC(=O)COCCN2C[C@@H]3C[C@H]2CN3c2ccc(C(=O)N[C@H]3C(C)(C)[C@H](Oc4ccc(C#N)c(Cl)c4)C3(C)C)cn2)C(C)(C)C)cc1 [Example 637, N-((1r,3S)-3-(3-chloro-4-cyanophenoxy)-2,2,4,4-tetramethylcyclobutyl)-6-((1S,4S)-5-(2-(2-(((S)-1-((2S,4R)-4-hydroxy-2-(((S)-1-(4-(4-methylthiazol-5-yl)phenyl)ethyl)carbam-oyl)pyrrolidin-1-yl)-3,3-dimethyl-1-oxobutan-2-yl)amino)-2-oxoethoxy)ethyl)-2,5-diazabicyclo[2.2.1]hept-an-2-yl)nicotinamide]	> 71%	< 50 nM	–	–	–
Cc1ncsc1-c1ccc(CNC(=O)[C@@H]2C[C@@H](O)CN2C(=O)[C@@H](NC(=O)COCCN2CCN(c3ccc(C(=O)N[C@H]4C(C)(C)[C@H](Oc5ccc(C#N)c(Cl)c5)C4(C)C)cn3)CC2)C(C)(C)C)cc1 [Example 638]	–	–	< 50 nM	> 71%	–
Cc1ncsc1-c1ccc([C@H](C)NC(=O)[C@@H]2C[C@@H](O)CN2C(=O)[C@@H](NC(=O)CO[C@@H](C)CN2CCN(c3ccc(C(=O)N[C@H]4C(C)(C)[C@H](Oc5ccc(C#N)c(Cl)c5)C4(C)C)cc3)CC2)C(C)(C)C)cc1 [Example 639, (1S,4R)-1-((S)-2-(2-(((S)-1-(4-(4-(((1r,3S)-3-(3-chloro-4-cyanophenoxy)-2,2,4,4-tetramethylcyclobutyl)carbamoyl)phenyl)piper-azin-1-yl)propan-2-yl)oxy)acetamido)-3,3-dimethylbutanoyl)-4-hydroxy-N-((S)-1-(4-(4-methylthiazol-5-yl)phenyl)ethyl)pyrrolidine-2-carboxamide]	–	–	< 50 nM	> 71%	–
Cc1ncsc1-c1ccc(CNC(=O)[C@@H]2C[C@@H](O)CN2C(=O)[C@@H](NC(=O)CN2CCC(OCCOc3ccc(C(=O)N[C@H]4C(C)(C)[C@H](Oc5ccc(C#N)c(C(F)(F)F)c5)C4(C)C)cc3)CC2)C(C)(C)C)cc1 [Example 640, (2S,4R)-1-((S)-2-(2-(4-(2-(4-(((1r,3r)-3-(4-cyano-3-(trifluorometh-yl)phenoxy)-2,2,4,4-tetramethylcyclobutyl)carbamoyl)phenoxy)eth-oxy)piperidin-1-yl)acetamido)-3,3-dimethylbutanoyl)-4-hydroxy-N-(4-(4-methylthiazol-5-yl)benzyl)pyrrolidine-2-carboxamide]	–	–	< 50 nM	–	Dmax [4]: > 71%
Cc1ncsc1-c1ccc([C@H](C)NC(=O)[C@@H]2C[C@@H](O)CN2C(=O)[C@@H](NC(=O)COCCCCOc2ccc(C(=O)N[C@H]3C(C)(C)[C@H](Oc4ccc(C#N)c(C(F)(F)F)c4)C3(C)C)cc2)C(C)(C)C)cc1 [Example 641, (2S,4R)-1-((S)-2-(2-(4-(4-(((1r,3r)-3-(4-cyano-3-(trifluorometh-yl)phenoxy)-2,2,4,4-tetramethylcyclobutyl)carbamoyl)phenoxy)butoxy)acetamido)-3,3-dimethylbutanoyl)-4-hydroxy-N-((S)-1-(4-(4-methylthiazol-5-yl)phenyl)ethyl)pyrrolidine-2-carboxamide]	–	–	< 50 nM	–	Dmax [4]: > 71%
Cc1ncsc1-c1ccc([C@H](C)NC(=O)C2C[C@@H](O)CN2C(=O)[C@@H](NC(=O)COCCC2(CCNc3ccc(C(=O)N[C@H]4C(C)(C)[C@H](Oc5ccc(C#N)c(Cl)c5)C4(C)C)cc3)COC2)C(C)(C)C)cc1 (some centres unmarked) [Example 642]	–	–	< 50 nM	> 71%	–
Cc1ncsc1-c1ccc([C@H](C)NC(=O)[C@@H]2C[C@@H](O)CN2C(=O)[C@@H](NC(=O)CN2CCOCCN(CCOc3ccc(N4C(=S)N(c5ccc(C#N)c(C(F)(F)F)c5)C(=O)C4(C)C)cc3)CCOCC2)C(C)(C)C)cc1 [Example 643, (2S,4R)-1-((S)-2-(2-(10-(2-(4-(3-(4-cyano-3-(trifluoromethyl)phenyl)-5,5-dimethyl-4-oxo-2-thioxoimidazolidin-1-yl)phenoxy)ethyl)-1,7-dioxa-4,10-diazacyclododecan-4-yl)acetamido)-3,3-dimethylbutanoyl)-4-hydroxy-N-((S)-1-(4-(4-methylthiazol-5-yl)phenyl)ethyl)pyrrolidine-2-carboxamide]	< 25%	> 501 nM	–	–	–
